Measurements from PubChem BioAssay (NCI).
Several values for one entry are separate records, joined by “and”; a condition that tells them apart may be missing. Equal values may be shown once.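 Results reflect a 48-hour exposure of cells in 96-well plates to compound at five concentrations. GI50 = concentration required for 50% inhibition of growth. At the TGI there is no net growth.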 Where a SMILES comes first, the peptide text is derived from it. [ ]: non-standard residue; d: D form. The star is where a group is joined. Decanoyl = CCCCCCCCCC(=O)*; Leu(ol) = CC(C)C[C@H](N)CO; Iva = CC[C@](C)(N)C(=O)O; Aib = CC(C)(N)C(=O)O

Test system: MDA-MB-468 breast
Assay: inhibition of tumour cell growth, NCI panel, 48 h

SMILES | GI50 | TGI
N#C/C(=C\c1ccc(Br)cc1)n1nnc2cc(Cl)c(Cl)cc21 | 2.15 µM | 5.13 µM
CCCN(CCC)c1ccc(/C=N/NC(=O)c2cccnc2)c(OC)c1 | 6.22 µM | 58.9 µM
NS(=O)(=O)NCCNc1nonc1C(=Nc1ccc(F)c(Br)c1)NO | 23.5 µM | 76.5 µM
Oc1ccc(C2c3ccccc3Oc3ccccc32)c2cccnc12 | 0.644 µM | 4.53 µM
CC(=[N-])N1CCC[C@@H](Nc2c3ccccc3nc3ccccc23)C1.[Cl][Pt].[NH-]CCC[NH-] | 0.128 µM | 0.901 µM
C=C(CO)[C@@H]1CC[C@]2(COC3CCCCO3)CC[C@]3(C)[C@H](CC[C@@H]4[C@@]5(C)C=C(C=O)C(=O)C(C)(C)[C@@H]5CC[C@]43C)[C@@H]12 (stereo partly specified) | 0.244 µM | 0.665 µM
Oc1c(Cl)cc(Cl)cc1C(c1cc(Cl)cc(Cl)c1O)C(Cl)(Cl)Cl | 2.17 µM | 7.63 µM
O=[N+]([O-])c1cc(C(F)(F)F)ccc1Sc1ccc(C(F)(F)F)cc1[N+](=O)[O-] | 3.67 µM | > 100 µM
C[N+](C)(C)CC(=O)N/N=C(\C(=O)NC1=C(Cl)C(=O)c2ccccc2C1=O)C(C#N)c1nc(-c2ccc([N+](=O)[O-])cc2)cs1 (stereo unspecified) | 3.89 µM | 16 µM
C/C(=C\c1cc(C(F)(F)F)n(-c2ccc(N)cc2)n1)[C@@H]1C[C@@H]2O[C@]2(C)CCC[C@H](C)[C@H](O)[C@@H](C)C(=O)C(C)(C)[C@@H](O)CC(=O)O1 | 0.0336 µM | 0.231 µM
COc1cc(-c2csc(NC(=O)Nc3ccc(C(F)(F)F)cc3)n2)cc(OC)c1OC | 1.72 µM | 5.71 µM
CC1(N)CCN(c2cnc(-c3cccc(Cl)c3Cl)c(N)n2)CC1 | 2.58 µM | 17.2 µM
CCOC(=O)c1ccc(NC2=C(Cl)C(=O)c3nc(C)ccc3C2=O)cc1 | 1.66 µM | 3.54 µM
CC(CN(C)C)Oc1ccccc1NC1=C(Cl)C(=O)C(Nc2ccccc2OC(C)CN(C)C)=C(Cl)C1=O (stereo unspecified) | 0.163 µM | 0.328 µM
COc1ccc2c(c1)C(=O)/C(=C/c1ccc([N+](=O)[O-])o1)O2 | 0.818 µM | 2.56 µM
CC1=C(C(=O)Nc2cc(Cl)c3[nH]ncc3c2)C(c2ccc(C(F)(F)F)cc2)CC(=O)N1 (stereo unspecified) | 8.02 µM | > 25 µM
CN1CCN(c2ccc(NC(=O)c3cncnc3Nc3ccc(OCc4ccccn4)c(Cl)c3)cc2)CC1 | 3.88 µM | 9.39 µM
COc1cc2nccc(Oc3ccc(NC(=O)Nc4cc(C)on4)c(Cl)c3)c2cc1OC | 2.34 µM and 2.93 µM | 8.09 µM and > 10 µM
Cc1cc(-c2ccccn2)cc(C)c1/C=C/c1cncc(-c2nn[nH]n2)c1 | > 25 µM | > 25 µM
Cc1ccc(C(=O)/C(=C\c2ccc([N+](=O)[O-])cc2)S(=O)Cc2ccc(Cl)cc2)cc1 (stereo unspecified) | 1.74 µM | 3.44 µM
CCc1ccc(C(=Nc2ccc(N(C)C(=O)CN3CCN(C)CC3)cc2)c2c(O)[nH]c3ccc(C(=O)OC)cc23)cc1 | 0.73 µM | 2.35 µM
CCC(=O)Nc1ccc(C)c(-c2ccc(C(=O)NCC3CC3)cc2)c1 | 14.9 µM | > 25 µM

SMILES | GI50 | TGI
O=C(N/N=C/c1ccc(O)cc1O)c1cccc(Nc2ccnc(C(F)(F)F)c2)c1 | 0.626 µM | > 58.3 µM
O=C(/C=C/C12c3ccccc3C(c3ccccc31)C1C(=O)NC(=O)C12)c1ccc(F)cc1 (stereo unspecified) | 1.99 µM | 4.1 µM
CC1(C)NCCC[C@]2(C)[C@H]3CC[C@@H]4[C@H]5[C@H](C(=O)/C=C/c6ccccn6)CC[C@]5(CO)CC[C@@]4(C)[C@]3(C)CC[C@@H]12 | 2.08 µM | 4.77 µM
OCCNc1nc(Nc2ccc(Cl)c(Cl)c2)nc2ccccc12 | 1.83 µM | 5.3 µM
CCCCCCCCCC(=O)N[C@@](C)(CC)C(=O)N1CCC[C@H]1C(=O)N[C@@H](CC(C)C)C(=O)N[C@@](C)(CC)C(=O)N[C@@H](CCC(N)=O)C(=O)N[C@H](CCC(N)=O)C(=O)NC(C)(C)C(=O)NC(C)(C)C(=O)N[C@@H](CCC(N)=O)C(=O)N[C@H](CC(C)C)C(=O)N[C@H](CO)CC(C)C (Decanoyl-[Iva]PL[Iva]Q[dQ][Aib][Aib]Q[dL][Leu(ol)]) | 1.77 µM | 3.49 µM
Nc1ccc(-c2cccs2)cc1NC(=O)c1ccc(CCCC(=O)Nc2ccc(C3CC3N)cc2)cc1 (stereo unspecified) | 1.9 µM | 4.37 µM
CCOC(=O)C#Cc1c(C(=O)OCC)nnn1Cc1ccc([N+](=O)[O-])cc1 | 1.96 µM | 4.4 µM
C=C1C(=O)O[C@H]2[C@H]1CC/C(COC(=O)C(C)c1ccc(CC(C)C)cc1)=C\CC[C@@]1(C)O[C@@H]21 (stereo partly specified) | 1.76 µM | 3.79 µM
O=C1C=CC(=O)N1c1cccc(N2C(=O)C=CC2=O)c1 | 1.88 µM | 3.99 µM
C/C(O)=C(\C#N)C(=O)Nc1ccc(C(F)(F)F)cc1 | 37.2 µM | > 100 µM
CC(=O)O[C@H]1[C@@H]2OC(=O)C(CSc3ccccc3)[C@@H]2C[C@H]2O[C@]2(C)CC/C=C(\C)CCC[C@@H]1C (stereo partly specified) | 1.46 µM | 3.62 µM
O=C1/C(=C/c2ccc(Cl)cc2)CCC/C1=C\c1ccc(Cl)cc1 | 3.08 µM | 9.21 µM
CC([C@H]1CCC2C3CCC4C[C@@H](N)CC[C@]4(C)C3CC[C@@]21C)N(C)C (stereo partly specified) | 1.57 µM | 4.83 µM
Cc1cc(N2CCOCC2)nc(N(CCCNc2ccnc3cc(Cl)ccc23)Cc2ccco2)n1 | 2.21 µM | 7.33 µM
Cc1ccc(NS(=O)(=O)c2cccc(C#N)c2)c2[nH]cc(C#N)c12 | 4.44 µM | 58.2 µM
Cc1ccc(NC(=O)CSc2nnc3n(Cc4ccccc4)c(=O)c4c(C)c(C(N)=O)sc4n23)cc1 | 18.6 µM | > 100 µM
O=C(O)c1c(=O)cccc2ssc12 | 2.14 µM | 4.38 µM
COC(=O)c1ccc(NC2=C(Cl)C(=O)C(C)=C(C)C2=O)cc1 | 1.49 µM | 3.1 µM
Clc1ccccc1CNc1c2ccccc2nc2ccccc12 | 1.12 µM | 3.04 µM
Cc1cc2c(C(N)=O)c(N)n(-c3c(C)ccc(O)c3C)c2nc1C | 8.69 µM | 29.7 µM
CCn1c(-c2nonc2N)nc2c(C#CC(C)(C)O)ncc(OC[C@H]3CCCNC3)c21 | 0.0872 µM | 18.9 µM
